# Read-outs that look alike come from different tables or passages of the source.
# Columns and labels:
# [1] = target: T1, Cyclin Dependent Kinase 1/Cyclin A2 (CDK1-cycA2) (Homo sapiens, UniProt P06493); assay: CDK1-cycA2 TR-FRET (Lance) enzyme assay; format: biochemical; details: for Ki: enzymatic assay; for FS CDK1/CDK2: fold selectivity, enzymatic Ki ratio
# T1 construct: purchased ProQinase 0134-0054-1
# Method: (§1) Cyclin Dependent Kinase 1/Cyclin A2 (CDK1-cycA2), Cyclin Dependent Kinase 2/Cyclin E1 (CDK2-cycE1), Cyclin Dependent Kinase 4/Cyclin D3 (CDK4-cycD3) and Cyclin Dependent Kinase 6/Cyclin D3 (CDK6-cycD3) enzyme assays were carried out as described below.
# (1) CDK1-cycA2 TR-FRET (Lance®)
# (§2) An Echo acoustic dispenser is used to create dose responses of compound dissolved in DMSO into a 384-well microplate. A 5 μL volume of enzyme mix is added to the well, and pre-incubated with compound for 30 minutes. […] Buffer conditions are 50 mM HEPES, pH 7.5, 10 mM MgCl2, 2 mM TCEP, 0.05% BGG and 0.01% Brij 35. The reaction is quenched with 5 μL of EDTA in detection buffer (15 mM [EDTA final]). Finally, a 5 μL TR-FRET detection mix is added to the quenched reaction, which includes Europium labeled anti-phospho-4E-BP1. […] Signal is a ratio of the Acceptor and Donor fluorescence. Inhibition constants are calculated via the Morrison equation.
# [2] = target: T2, Cyclin Dependent Kinase 4/Cyclin D3 (CDK4-cycD3) (Homo sapiens, UniProt P11802); assay: CDK4-cycD3 TR-FRET (LANCE) enzyme assay; format: biochemical; details: for Ki: enzymatic assay; for FS CDK4/CDK2: fold selectivity, enzymatic Ki ratio
# T2 construct: purchased Carna Biosciences 04-105
# Method: as §1
# (iii) CDK4-cycD3 TR-FRET (LANCE®)
# as §2
# [3] = system: OVISE (JCRB1043, CCNE1-amplified); assay: OVISE EdU incorporation cell proliferation assay (CDK2-dependent); format: cell-based; details: for IC50: cellular assay, read-out: CDK2 OVISE IC50; for FS SKOV-3/OVISE: fold selectivity; for increased fold-selectivity SKOV-3/OVISE over Comparator C: (+) sign after FS SKOV-3/OVISE; for improvement in CDK2 OVISE cell potency over Comparator C: in brackets after OVISE IC50, Comparator C 5.5 μM
# Method: (§3) (i) OVISE and SKOV-3 EdU Incorporation Cell Proliferation Assays
# (§4) Ovarian cancer cell proliferation is measured by incorporation of EdU (5-ethynyl-2′-deoxyuridine) into newly synthesized DNA. CDK2-dependent proliferation is determined using OVISE (JCRB1043, CCNE1-amplified) while CDK4/6-dependent effect is determined with SKOV-3 (ATCC HTB-77) which is not CCNE1-amplified.
# (§5) Cells are plated in 384-well plates in RPMI medium supplemented with 10% FBS. Compounds are added at desired concentrations with a final DMSO content of 0.5%, and cells incubated at 37° C./5% CO2 for 16 hours. EdU (Life Technologies) is added to a final concentration of 0.5 μM and incubation continued for 8 hours, followed by fixation with 4% paraformaldehyde. […] Images are acquired using Yokogawa CQ1 imaging cytometer with a 10×objective. […] The IC50 for inhibition of cell division is determined by fitting the fraction of EdU-positive cells as a function of compound dose using a 4-parameter logistic model.
# [4] = target: T3, Cyclin Dependent Kinase 2/Cyclin E1 (CDK2-cycE1) (Homo sapiens, UniProt P24941); assay: CDK2-cycE1 TR-FRET (LANCE) enzyme assay; format: biochemical; details: for FS CDK1/CDK2 / FS CDK4/CDK2: fold selectivity; for increased fold-selectivity CDK4/CDK2 over Comparator C: (+) sign after FS CDK4/CDK2;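 on improvement in potency against CDK2 (Ki) over Comparator C: fold lower CDK2 Ki than comparator c (Ki 0.032 µM)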
# T3 construct: purchased ProQinase 0050-0055-1
# Method: as §1
# (ii) CDK2-cycE1 TR-FRET (LANCE®)
# as §2, with “anti-phospho-MBP.” for “anti-phospho-4E-BP1.”, “equation. Enzyme source of CDK2-cycE1 is ProQinase, catalog #: 0050-0055-1.” for “equation.”
# SKOV-3 (ATCC HTB-77) = assay: SKOV-3 EdU incorporation cell proliferation assay (CDK4/6-dependent); format: cell-based; details: for IC50: Homo sapiens, cellular assay, read-out: CDK4/6 SKOV-3 IC50; for FS SKOV-3/OVISE: fold selectivity, cellular IC50 ratio
# Method: as §3, §4, §5
# [5] = Table O, cellular SKOV-3 IC50 over OVISE IC50
# [6] = Table O, enzymatic assay, read-out: CDK2 Ki
# [7] = Table O, enzymatic CDK1 Ki over CDK2 Ki
# [8] = Table O, enzymatic CDK4 Ki over CDK2 Ki
# [9] = read-out: CDK2 activity / potency (enzymatic assay)
# [10] = Table Q, enzymatic assay, read-out: CDK2 Ki
# [11] = Table Q, in brackets after CDK2 Ki, Comparator C 0.032 μM
# T1 sequence (P06493 whole entry): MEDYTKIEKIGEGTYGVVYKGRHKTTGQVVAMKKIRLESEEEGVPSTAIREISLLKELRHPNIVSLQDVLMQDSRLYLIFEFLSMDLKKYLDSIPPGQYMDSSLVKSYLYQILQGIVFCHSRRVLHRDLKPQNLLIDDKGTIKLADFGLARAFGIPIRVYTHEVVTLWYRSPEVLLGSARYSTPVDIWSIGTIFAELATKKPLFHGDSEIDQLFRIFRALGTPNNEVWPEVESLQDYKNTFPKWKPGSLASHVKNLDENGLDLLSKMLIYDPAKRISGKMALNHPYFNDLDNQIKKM
# T1 sequence (P20248 whole entry partner): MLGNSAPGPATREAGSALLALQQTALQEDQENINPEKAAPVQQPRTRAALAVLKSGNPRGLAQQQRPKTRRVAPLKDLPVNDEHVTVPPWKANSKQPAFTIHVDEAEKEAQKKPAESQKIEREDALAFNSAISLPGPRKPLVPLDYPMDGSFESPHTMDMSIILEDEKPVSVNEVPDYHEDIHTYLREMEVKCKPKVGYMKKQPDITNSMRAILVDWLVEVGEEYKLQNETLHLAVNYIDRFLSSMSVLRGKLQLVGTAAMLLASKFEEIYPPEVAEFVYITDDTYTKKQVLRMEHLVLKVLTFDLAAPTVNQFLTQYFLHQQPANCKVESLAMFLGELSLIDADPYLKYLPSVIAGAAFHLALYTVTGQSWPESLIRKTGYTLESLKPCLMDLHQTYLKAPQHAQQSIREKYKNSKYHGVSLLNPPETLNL
# T2 sequence (P11802 whole entry): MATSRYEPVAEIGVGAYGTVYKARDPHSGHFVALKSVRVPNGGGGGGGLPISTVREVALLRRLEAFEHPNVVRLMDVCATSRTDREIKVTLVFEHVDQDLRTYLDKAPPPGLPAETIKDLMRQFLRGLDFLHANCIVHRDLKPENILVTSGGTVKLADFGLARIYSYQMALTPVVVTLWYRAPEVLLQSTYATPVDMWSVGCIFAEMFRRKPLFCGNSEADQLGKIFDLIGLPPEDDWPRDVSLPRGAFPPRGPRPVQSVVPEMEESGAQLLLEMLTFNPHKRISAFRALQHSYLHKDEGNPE
# T2 sequence (P30281 whole entry partner): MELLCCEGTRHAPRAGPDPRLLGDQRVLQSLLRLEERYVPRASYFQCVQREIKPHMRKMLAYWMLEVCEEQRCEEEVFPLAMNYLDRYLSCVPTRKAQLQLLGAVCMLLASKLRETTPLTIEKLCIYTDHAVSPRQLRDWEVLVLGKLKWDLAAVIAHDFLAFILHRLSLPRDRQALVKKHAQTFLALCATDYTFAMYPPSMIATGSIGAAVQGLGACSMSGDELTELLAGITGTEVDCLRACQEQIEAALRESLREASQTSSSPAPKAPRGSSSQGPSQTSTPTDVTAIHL
Ki ([1]; Table O),Ki ([2]; Table O),"Ki [4, 6]","FS CDK1/CDK2 [4, 7]","FS CDK4/CDK2 [4, 8]","IC50 (SKOV-3 (ATCC HTB-77); SK-OV-3, Table O)",SMILES,IC50 ([3]; Table O),"FS SKOV-3/OVISE [3, 5]",further results
200 nM,290 nM,8.5 nM,24,34,10 µM,"CC[C@H](C)NC(=O)O[C@@H]1CC[C@H](c2cc(Nc3cccnn3)n[nH]2)C1 (single isomer, unassigned) [Example 3B]",570 nM,18,
500 nM,430 nM,18 nM,28,24,12 µM,"CC[C@@H](C)NC(=O)O[C@@H]1CC[C@H](c2cc(Nc3cccnn3)n[nH]2)C1 (single isomer, unassigned) [Example 3C]",390 nM,31,
1700 nM,2100 nM,63 nM,27,33,> 20 µM,"C[C@H](NC(=O)O[C@@H]1CC[C@H](c2cc(Nc3cccnn3)n[nH]2)C1)C(F)(F)F (single isomer, unassigned) [Example 5A]",2200 nM,>9,
310 nM,510 nM,26 nM,12,20,> 20 µM,"C[C@@H](NC(=O)O[C@@H]1CC[C@H](c2cc(Nc3cccnn3)n[nH]2)C1)C(F)(F)F (single isomer, unassigned) [Example 5B]",2900 nM,>6.9,
,,,,,,"CC(C)(C)NC(=O)O[C@@H]1CC[C@H](c2cc(Nc3ccc4c(n3)CCC4)n[nH]2)C1 [Comparator D, (1R,3S)-3-(3-((6,7-dihydro-5H-cyclopenta[b]pyridin-2-yl)amino)-1H-pyrazol-5-yl)cyclopentyl tert-butylcarbamate, reference compound]",,,"Ki ([1]; Table R): 54 nM; FS CDK1/CDK2 ([1]; Table R): 20; Ki ([2]; Table R): 5.2 nM; FS CDK4/CDK2 ([2]; Table R): 1.9; IC50 ([3]; Table R): 3800 nM; Ki [4, 9]: 2.7 nM; IC50 (SKOV-3 (ATCC HTB-77); SK-OV-3, Table R): 1.8 µM; FS SKOV-3/OVISE (SKOV-3 (ATCC HTB-77); Table R): 0.47"
,,,,,,"CC(C)(C)NC(=O)O[C@@H]1CC[C@H](c2cc(Nc3ccccc3)n[nH]2)C1 [Comparator E, (1R,3S)-3-(3-(phenylamino)-1H-pyrazol-5-yl)cyclopentyl tert-butylcarbamate, reference compound]",,,"Ki ([1]; Table S): 33 nM; FS CDK1/CDK2 ([1]; Table S): 63; Ki ([2]; Table S): 23 nM; FS CDK4/CDK2 ([2]; Table S): 44; IC50 ([3]; Table S): 170 nM; Ki ([4]; Table S, enzymatic assay, read-out: CDK2 Ki): 0.52 nM; Ki [4, 9]: 0.52 nM; IC50 (SKOV-3 (ATCC HTB-77); SK-OV-3, Table S): 2.7 µM; FS SKOV-3/OVISE (SKOV-3 (ATCC HTB-77); Table S): 16"
440 nM,450 nM,17 nM,26,26,> 20 µM,"CC(C)NC(=O)O[C@@H]1CC[C@H](c2cc(Nc3ccn(C)c(=O)c3)n[nH]2)C1 [Example 2AA, (1R,3S)-3-(3-((1-methyl-2-oxo-1,2-dihydropyridin-4-yl)amino)-1H-pyrazol-5-y1)cyclopenty1 isopropylcarbamate]",4100 nM,>49,"increased fold-selectivity SKOV-3/OVISE over Comparator C ([3]; Table Q): (+) (The (+) sign in Table Q signifies desirable increased fold-selectivity of the exemplary compounds over Comparator C); FS SKOV-3/OVISE ([3]; Table Q, cellular): > 4.9; improvement in CDK2 OVISE cell potency over Comparator C ([3]; Table Q): 1.3 fold; increased fold-selectivity CDK4/CDK2 over Comparator C ([4]; Table Q): (+) (The (+) sign in Table Q signifies desirable increased fold-selectivity of the exemplary compounds over Comparator C); Ki [4, 10]: 17 nM; FS CDK1/CDK2 ([4]; Table Q, enzymatic): 26; FS CDK4/CDK2 ([4]; Table Q, enzymatic): 26; improvement in potency against CDK2 (Ki) over Comparator C [4, 11]: 1.9 fold; IC50 (SKOV-3 (ATCC HTB-77); SK-OV-3, Table Q): > 20 µM"
32000 nM,6900 nM,1100 nM,29,6.3,> 20 µM,"CC(C)NC(=O)O[C@@H]1CC[C@H](c2cc(Nc3cccn(C)c3=O)n[nH]2)C1 [Example 2BB, (1R,3S)-3-(3-((1-methyl-2-oxo-1,2-dihydropyridin-3-yl)amino)-1H-pyrazol-5-y1)cyclopenty1 isopropylcarbamate]",> 20000 nM,1.0,"IC50 ([3]; Table Q): > 20000 nM; FS SKOV-3/OVISE ([3]; Table Q, cellular): 1.0; improvement in CDK2 OVISE cell potency over Comparator C ([3]; Table Q): 0.28 fold; Ki [4, 10]: 1100 nM; FS CDK1/CDK2 ([4]; Table Q, enzymatic): 29; FS CDK4/CDK2 ([4]; Table Q, enzymatic): 6.3; improvement in potency against CDK2 (Ki) over Comparator C [4, 11]: 0.3 fold; IC50 (SKOV-3 (ATCC HTB-77); SK-OV-3, Table Q): > 20 µM"
11000 nM,,270 nM,41,185,> 20 µM,"Cn1c(Nc2cc([C@H]3CC[C@@H](OC(=O)NC(C)(C)C)C3)[nH]n2)ccnc1=O [Example 8A, (1R,3S)-3-(3-((3-methyl-2-oxo-2,3-dihydropyrimidin-4-yl)amino)-1H-pyrazol-5-yl)cyclopentyl tert-butylcarbamate]",20000 nM,>1,
,150 nM,,,,3 µM,"Cn1c(Nc2cc([C@H]3CC[C@@H](OC(=O)NC45CC(C4)C5)C3)[nH]n2)nccc1=O [Example 9A, (1R,3S)-3-(3-((1-methyl-6-oxo-1,6-dihydropyrimidin-2-yl)amino)-1H-pyrazol-5-yl)cyclopentyl bicyclo[1.1.1]pentan-1-ylcarbamate]",,,

SMILES,Ki ([1]; Table O),Ki ([2]; Table O),"Ki [4, 6]","FS CDK1/CDK2 [4, 7]","FS CDK4/CDK2 [4, 8]","IC50 (SKOV-3 (ATCC HTB-77); SK-OV-3, Table O)",IC50 ([3]; Table O),"FS SKOV-3/OVISE [3, 5]",further results
"CC(C)NC(=O)O[C@@H]1CC[C@H](c2cc(Nc3cc(=O)[nH]cn3)n[nH]2)C1 [Example 2CC, (1R,3S)-3-(3-((6-oxo-1,6-dihydropyrimidin-4-yl)amino)-1H-pyrazol-5-yl)cyclopentyl isopropylcarbamate]",34 nM,130 nM,0.33 nM,100,390,> 20 µM,2000 nM,>10,"increased fold-selectivity SKOV-3/OVISE over Comparator C ([3]; Table Q): (+) (The (+) sign in Table Q signifies desirable increased fold-selectivity of the exemplary compounds over Comparator C); FS SKOV-3/OVISE ([3]; Table Q, cellular): > 10; improvement in CDK2 OVISE cell potency over Comparator C ([3]; Table Q): 2.8 fold; improvement in potency against CDK2 (Ki) over Comparator C [4]: 97 fold; increased fold-selectivity CDK1/CDK2 over Comparator C ([4]; Table Q, (+) sign after FS CDK1/CDK2): (+) (The (+) sign in Table Q signifies desirable increased fold-selectivity of the exemplary compounds over Comparator C); increased fold-selectivity CDK4/CDK2 over Comparator C ([4]; Table Q): (+) (The (+) sign in Table Q signifies desirable increased fold-selectivity of the exemplary compounds over Comparator C); Ki [4, 10]: 0.33 nM; FS CDK1/CDK2 ([4]; Table Q, enzymatic): 100; FS CDK4/CDK2 ([4]; Table Q, enzymatic): 390; Ki [4, 9]: ≤ 1 nM; IC50 (SKOV-3 (ATCC HTB-77); SK-OV-3, Table Q): > 20 µM"
